Measured values taken from patent US3988316A, “Antibiotics sisomicin and verdamicin I and complex containing same” (Schering Corporation, priority 1975, dated 1976).
Structures can show the parent of a compound that is named as a salt.

Key:
[1] = system: Staphylococcus aureus ATCC 6538P; test: Disc plate microbiological assay
Text: Th microbiological assay of the antibiotic substances is a disc plate assay using Staphylococcus aureus ATCC 6538P as test organism.

[2] = system: gram-positive and gram-negative organisms; test: In vivo antibacterial activity in mice (in words)
Experimental: (§1) Verdamicin I was tested against four (4) species of infectious bacteria in mice and was administered as a single subcutaneous dose one (1) hour after infection via intraperitoneal injection of a lethal quantity of pathogen.
(§2) Results obtained with gentamicin are set for comparison.

[3] = system: gram positive and gram-negative bacteria; test: In vitro antibacterial activity, Verdamicin I (in words); format: cell-based
[4] = pKa (Chemical and Physical Properties of Verdamicin I); format: physicochemical; conditions: base
Text: In table VI below are set forth physical properties of […] as the hydrated free nitrogen base and as the sulfuric acid addition salt (sulfate).

[5] = system: Staphylococcus aureus Gray; test: Protective Activity in Mice; format: in vivo; conditions: S.C., single dose one hour after intraperitoneal infection
Experimental: as §1, §2

[6] = system: Pseudomonas aeruginosa 8689; test: Protective Activity in Mice; format: in vivo; conditions: S.C., single dose one hour after intraperitoneal infection
Experimental: as §1, §2

Escherichia coli 10536 = test: Protective Activity in Mice; format: in vivo; conditions: S.C., single dose one hour after intraperitoneal infection
Experimental: as §1, §2

Streptococcus pyogenes C = test: Protective Activity in Mice; format: in vivo; conditions: S.C., single dose one hour after intraperitoneal infection
Experimental: as §1, §2

in vivo = conditions: mouse, iv

Q: With `CN[C@@H]1[C@@H](O)[C@@H](O[C@@H]2[C@@H](O)[C@H](O[C@H]3OC(C(C)N)=CC[C@H]3N)[C@@H](N)C[C@H]2N)OC[C@]1(C)O` (stereo partly drawn) [Verdamicin I Sulfate] as the compound, how does the “potency against its own base as the comparison standard” value ([1]; own base as comparison standard) read?
A: The value was 695 meg/mg.

Q: What does the source list for `CN[C@@H]1[C@@H](O)[C@@H](O[C@@H]2[C@@H](O)[C@H](O[C@H]3OC(C(C)N)=CC[C@H]3N)[C@@H](N)C[C@H]2N)OC[C@]1(C)O` (stereo partly drawn) [Verdamicin I]?
A: dose response curve ([1]; gentamicin assay): parallel to that of gentamicin; zone of inhibition ([1]; one meg. of standard): 17.0 ± 1.3 mm; in vivo antibacterial activity [2]: potent antibacterial agent; antibacterial activity in vitro [3]: broad spectrum of antibacterial activity; pKa [4]: 8.1; ED50 ([5]; Staphylococcus aureus, sc, 1 h, read-out: PD50): 2.5 mg/kg; ED50 ([6]; Pseudomonas aeruginosa, 8689, sc, 1 h, read-out: PD50): 2 mg/kg; ED50 (Escherichia coli 10536; Escherichia coli, 10536, sc, 1 h, read-out: PD50): 1.5 mg/kg; ED50 (Streptococcus pyogenes C; Streptococcus pyogenes, sc, 1 h, read-out: PD50): 1 mg/kg; LD50 (in vivo): 75 mg/kg

Q: Which PD50 [5] does the source give for gentamicin [reference compound] here?
A: The PD50 was 2.4 mg/kg.

Q: What about the PD50 [6] of the same compound?
A: The PD50 was 1.7 mg/kg.

Q: And the PD50 (Escherichia coli 10536)?
A: Its PD50 is 1.7 mg/kg.

Q: What about the PD50 (Streptococcus pyogenes C) of the same compound?
A: The PD50 was 5.0 mg/kg.
